Key:
[1] = system: PC-3 (a prostate cancer cell line); experiment: In-vitro cell viability assay (CellTiter-Glo); type: cell-based
[2] = system: SUM190PT (a breast cancer cell line); experiment: In-vitro cell viability assay (CellTiter-Glo); type: cell-based
[3] = system: T47D (a breast cancer cell line); experiment: cells; conditions: Homo sapiens
Description: Specifically, the cell lines described in Table 5 were seeded per well in a 96-well plate and incubated at room temperature (37°C, 5% CO2). After 24 hours, the cells were treated with 100 µL of payload compounds or ADC drugs at 9 concentrations (a 4-fold serial dilution starting from 1,000 nM). In particular, a control group (drug concentration 0), which is an untreated group, was also prepared. After 6 days of incubation (37°C, 5% CO2), 100 µL of CellTiter-Glo reagent (CellTiter-Glo® Luminescent Cell Viability Assay kit (Promega, G7571)) was added to each well and pipetted. Fluorescence was measured after incubation at room temperature (RT) for 10 minutes.

[4] = system: bladder cancer xenograft model (BL9200); experiment: HuPrime bladder cancer xenograft model (BL9200) in NOD/SCID mice; type: in vivo, NOD/SCID strain female mice; conditions: for Tumor Volume (mean ± SEM), Day 25: number of mice in brackets
T47D human breast cancer = experiment: Xenograft model of T47D human breast cancer (xxT47D) in BALB/c nude mice; type: in vivo, female BALB/c nude mice; conditions: 50 mg/kg p.o. QD x 4 weeks

CC[C@@]1(O)C(=O)OCc2c1cc1n(c2=O)Cc2c-1nc1cc(F)c(C)c3c1c2[C@@H](N)CC3 [Exatecan, reference compound]
IC50 [1]: 0.62 nM
IC50 [2]: 2.3 nM

CC[C@@]1(O)C(=O)OCc2c1cc1n(c2=O)Cc2c-1nc1cc3c(c4c1c2[C@@H](NC(=O)[C@@H](C)O)CC4)OCO3 [PBX-7016]
IC50 [3]: 0.47 nM
IC50 [1]: 3.51 nM
IC50 [2]: 9.4 nM

PADCEV: ADC in which anti-Nectin4 mAb and MMAE are linked by an mc-vc-PAB linker [reference compound]
TGI (%), Day 25 ([4]; 5 mg/kg i.v. QW × 3wks): 108.4%
ΔT/ΔC (%), Day 25 ([4]; 5 mg/kg i.v. QW × 3wks): -8.4%
Tumor Volume (mean ± SEM), Day 25 ([4]; 5 mg/kg i.v. QW × 3wks): 27.26 +/- 2.75(10) mm^3
TGI (%), Day 25 ([4]; 10 mg/kg i.v. QW × 3wks): 109.4%
ΔT/ΔC (%), Day 25 ([4]; 10 mg/kg i.v. QW × 3wks): -9.4%
Tumor Volume (mean ± SEM), Day 25 ([4]; 10 mg/kg i.v. QW × 3wks): 11.07 +/- 3.12(10) mm^3

CC(=O)c1c(C)c2cnc(Nc3ccc(N4CCNCC4)cn3)nc2n(C2CCCC2)c1=O [Palbociclib]
Tumor Weight (g) on Day 28, mean ± SEM (T47D human breast cancer): 0.396 ± 0.047 g
Tumor Volume (mm^3), mean ± SEM (T47D human breast cancer; day 3): 249 ± 17 mm^3
Tumor Volume (mm^3), mean ± SEM (T47D human breast cancer; day 7): 290 ± 22 mm^3
Tumor Volume (mm^3), mean ± SEM (T47D human breast cancer; day 10): 328 ± 23 mm^3
Tumor Volume (mm^3), mean ± SEM (T47D human breast cancer; day 14): 342 ± 26 mm^3
Tumor Volume (mm^3), mean ± SEM (T47D human breast cancer; day 17): 344 ± 29 mm^3
Tumor Volume (mm^3), mean ± SEM (T47D human breast cancer; day 21): 360 ± 36 mm^3
Tumor Volume (mm^3), mean ± SEM (T47D human breast cancer; day 24): 384 ± 42 mm^3
T/Cweight (%) (T47D human breast cancer; day 28): 41.79%
TGI (%) (T47D human breast cancer; day 28): 70.93%
Tumor Volume (mm^3), mean ± SEM (T47D human breast cancer; day 28): 407 ± 49 mm^3
T/C (%) (T47D human breast cancer; tumor volume day 28 vs control G1): 43.63%
